Assay results from patent US20220288037A1, “PRODRUGS AND FORMULATIONS THEREOF” (BOARD OF REGENTS OF THE UNIVERSITY OF NEBRASKA, priority 2019, published 2022).

Assay: aqueous solubility of prodrug
Format: physicochemical
Conditions: prodrug compared with parent drug, FIG. 1B
Description: FIGS. 1A-1D provide characterization of a prodrug of nitazoxanide ([…]) and a nanoformulation thereof (NM1NTZ). FIG. 1A provides a Fourier transform infrared (FT-IR) spectrum of […] showing absorption bands at 2915 cm^-1 and 2850 cm^-1, thereby confirming formation of the prodrug as well as the nuclear magnetic resonance spectroscopy of the compound. FIG. 1B provides a graph of the aqueous solubility of […]. […] FIG. 1C provides a graph of cell viability as evaluated by mitochondrial function in monocyte-derived macrophage (MDM) by a 3-(4,5-dimethylthiazol-2-yl)-2,5-diphenyltetrazolium bromide (MTT) assay. NM1NTZ exerted no adverse effects to cell viability at 400 μM of drug or less. FIG. 1D provides graphs showing the particle size, polydispersity index (PDI) and charge of the nanoformulations over time, thereby showing the stability of the nanoparticles.

CCCCCCCCCCCCCCCCCC(=O)Oc1ccccc1C(=O)Nc1ncc([N+](=O)[O-])s1 [M1NTZ]
aqueous solubility: decreased water solubility
